Measured values from ChEMBL document CHEMBL1155625, “Nostocyclyne A, a novel antimicrobial cyclophane from the cyanobacterium Nostoc sp” (2000).

Columns and labels:
Format in all cases: functional
Escherichia coli = test: Antimicrobial activity against Escherichia coli measured per disk
Chlorophyta = test: Inhibition of photosynthesis in green alga at 100 ug/mL
Staphylococcus aureus = test: Antimicrobial activity against Staphylococcus aureus measured per disk

CCCC1CCCCCCCCCCCC#Cc2cc(O)c1c(O)c2 (stereo not drawn) [NOSTOCYCLYNE A]
MIC (Escherichia coli): 10 µg
inhibition at 100 µg/mL (Chlorophyta): 5%
MIC (Staphylococcus aureus): 12.5 µg
